Earlier results on 1 compound are cited in paper PMC11199504, “New hemisynthetic derivatives of sphaeropsidin phytotoxins triggering severe endoplasmic reticulum swelling in cancer cells” (Scientific Reports, 2024).

Parameters in all cases: method as in doi:10.1016/j.phytol.2012.08.011
The subject of one data set is U373. The following applies: 72 h treatment; read-out: IC50 determined by MTT assays, U373; cited from earlier work. On the technique in general: Formazan colour is commonly taken as a measure of viable cells.
A further data set deals with A549. Conditions: 72 h treatment; read-out: IC50 determined by MTT assays, A549; cited from earlier work.
For another data set, the system named is B16F10. Conditions: 72 h treatment; read-out: IC50 determined by MTT assays, B16F10; cited from earlier work.
In data set [1] the test system is A549, SKMEL-28, U373, MCF7, Hs683, B16F10. The following applies: mean over cell lines (MCF7 not available); read-out: IC50 determined by MTT assays, Mean; cited from earlier work.
In a further data set the test system is SKMEL-28. The following applies: 72 h treatment; read-out: IC50 determined by MTT assays, SKMEL-28; cited from earlier work.
In another data set the test system is Hs683. The following applies: 72 h treatment; read-out: IC50 determined by MTT assays, Hs683; cited from earlier work.

`C=CC1(C)C=C2C(=O)C3(OC(C)=O)OC(=O)C4(CCCC(C)(C)C34)C2(O)CC1` (stereo not drawn) [Compound 2]: the IC50 in the data set with U373 was 950 ± 20 nM; in the data set with A549 it was 2290 ± 130 nM; with B16F10, 1560 ± 160 nM; in data set [1], 2250 ± 480 nM; in the data set with SKMEL-28 it was 2680 ± 40 nM; with Hs683 it was 3760 ± 40 nM.

The IC50 is the point on the concentration scale where inhibition reaches its midpoint.
